# Reference: US20070254939A1, “Formulations Containing Amide Derivatives of Carboxylic Acid NSAIDS for Topical Administration to the Eye” (ALCON, INC., priority 2006, published 2007)
# Tested on: mitochondria prepared from the livers of male Sprague Dawley rats
# Experiment: in vitro mitochondrial swelling assay (light scattering at 540 nm)
# Format: biochemical, rat
# Details: for swelling response of non-peroxide stressed (control) mitochondria: normal, unstressed mitochondria, test article 100 μM, time course over 17 minutes, FIG. 1
# Experimental: To evaluate the effects of sulfite salts on carboxylic acid NSAID-induced mitochondrial swelling, the following assay was used. […] An initial low speed centrifugation (600×g for 10 minutes) was conducted to remove nuclei and cell debris. The pellet was discarded and the supernatant was centrifuged at 7,740×g for 10 minutes to obtain a crude mitochondrial pellet. […] The suspension was centrifuged at 7,740×g for 10 minutes. The mitochondrial pellet was suspended in 30 mL of ice-cold wash buffer and centrifuged at 10,100×g for 10 minutes. […] The mitochondrial suspension was placed on ice for immediate assay. An aliquot of the mitochondrial preparation was added to a 5.0 mL cuvette (1.0 cm path length) that contained 2.95 mL of iso-osmotic HEPES buffer, supplemented with sodium succinate and rotenone. An appropriate aliquote of the mitochondrial suspension was added to the cuvette and swelling was monitored by light scattering at 540 nm for a period of 17 minutes. When drug effects were examined, mitochondria were initially exposed for a period of one minute to the test article before the addition of either buffer, t-BOOH (150 μM) or sodium sulfite (300 μM).
SMILES,swelling response of non-peroxide stressed (control) mitochondria,"swelling response of t-BOOH-stressed mitochondria (t-BOOH 150 μM, diclofenac 30, 100 or 300 μM, FIG. 2)","effect of sulfite salt on NSAID-induced swelling of peroxide-stressed mitochondria (t-BOOH 150 μM, sodium sulfite 300 μM with 60 μM amfenac or 60 μM bromfenac, FIG. 3)"
O=C(O)Cc1ccccc1Nc1c(Cl)cccc1Cl [diclofenac],do not affect swelling,promote the swelling of mitochondria,
CC(C)Cc1ccc(C(C)C(=O)O)cc1 (stereo not drawn) [ibuprofen],do not affect swelling,,
Nc1c(CC(=O)O)cccc1C(=O)c1ccc(Br)cc1 [bromfenac],do not affect swelling,,
Nc1c(CC(=O)O)cccc1C(=O)c1ccccc1 [amfenac],do not affect swelling,,
O=S([O-])[O-].[Na+].[Na+] [sodium sulfite],,,mitochondrial swelling is prevented
